The record followed here is patent publication US7202057B2 (Ortho-McNeil Pharmaceutical, Inc., priority 2000, dated 2007).

In test [1] the target is T1, guinea pig histamine H4 receptor (Cavia porcellus, UniProt Q91ZY3). The note with it: read-out: Guinea Pig Ki.
The target of test [2] is T2, human histamine H4 receptor (Homo sapiens, UniProt Q9H3N8).
Test [3] addresses T2, human histamine H4 receptor. The settings on record: pH 4.
The target in test [4] is T1, guinea pig histamine H4 receptor. The note with it: read-out: ^3H-histamine Kd.

T2 sequence (Q9H3N8 whole entry): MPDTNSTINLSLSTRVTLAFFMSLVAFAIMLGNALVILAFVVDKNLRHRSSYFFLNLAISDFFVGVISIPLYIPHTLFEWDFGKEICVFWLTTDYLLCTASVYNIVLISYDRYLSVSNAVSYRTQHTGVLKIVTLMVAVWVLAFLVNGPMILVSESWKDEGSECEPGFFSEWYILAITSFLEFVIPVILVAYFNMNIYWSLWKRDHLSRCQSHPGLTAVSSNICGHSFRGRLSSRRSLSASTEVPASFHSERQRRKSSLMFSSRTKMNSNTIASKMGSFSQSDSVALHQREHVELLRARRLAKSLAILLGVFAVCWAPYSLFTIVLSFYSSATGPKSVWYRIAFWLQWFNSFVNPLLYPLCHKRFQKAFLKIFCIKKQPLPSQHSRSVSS

A word on the Ki: it is the equilibrium dissociation constant of an inhibitor or competing ligand from its target. With `NC(=NCc1ccc(Cl)cc1)SCCCc1cnc[nH]1` [Clobenpropit], the inhibition constant Ki in test [1] amounted to 3.6 nM.
In the case of `NCCc1c[nH]cn1` [Histamine], the Ki in test [1] is 27 nM. Further, the “Activation of the receptor (decrease of forskolin-raised cAMP)” value in test [2] was “specifically activated”.
On to `N=C(N)SCCc1cnc[nH]1` [Imetit], for which, in test [1], the Ki was found to be 30 nM.
Still for that read-out and setting: for `CNCCc1c[nH]cn1` [N-methylhistamine] the value was 220 nM; for `C[C@@H](N)Cc1c[nH]cn1` [R-α-methylhistamine], 486 nM; for `S=C(NC1CCCCC1)N1CCC(c2cnc[nH]2)CC1` [Thioperamide], 83 nM.
In general, Kd refers to the concentration at which binding is half-saturated. In the case of `NCCc1cnc[nH]1` [^3H-histamine], in test [3], the “Binding affinity in words” value is “high affinity”. For the same compound, the Kd in test [4] is 20 nM.
